Data published in patent US8338624B2, “Isoflavone derivatives and uses thereof” (Yeda Research and Development Co., Ltd., priority 2007, dated 2012).

Legend:
[1] = test system: 320DM human colon cancer cells; assay: DNA synthesis by [3H]-thymidine incorporation, 320DM cells; assay type: cell-based
Description: (§1) Cells were cultured in MEM supplemented with 10% FCS and antibiotics. Cells were grown to subconfluence and then treated with various hormones or agents as described by Somjen et al. (Somjen et al., 1998). The cells were characterized in terms of expression of mRNAs for estrogen […] by real time PCR, and the results are summarized in Table 1. N87, 320DM and H295R cells expressed mRNAs for both ERs. The ratio of ERα to ERβ was 1:8.5, 1:30 and 1:1.8 in N87, 320DM and H295R cells, respectively. Ovarian A2780 and prostate C4-24 cells expressed mainly mRNA for ERβ, and the ratio of ERβ to ERα was 300:1 and 70:1, respectively. MLS ovarian cells expressed mRNA only for ERβ. The ratio of ERα to ERβ in T47D cells has been reported to be 9:1.
[^3H]-Thymidine incorporation into DNA was used for the assessment of the various effects (proliferative or inhibitory) of various isoflavones, isoflavone derivatives and known cytotoxic drugs in the above-mentioned cells. Cells were grown until subconfluence using conditions described in Somjen et al. […] At the end of incubation, [^3H]-thymidine was added for two hours. Cells were then treated with 10% ice-cold trichloroacetic (TCA) for 5 min and washed twice with 5% TCA and then with cold ethanol. The cellular layer was dissolved in 0.3 ml of 0.3 M NaOH, aliquots were taken for counting radioactivity, and [^3H]-thymidine incorporation into DNA was calculated.

[2] = test system: A2780 ovarian cancer cells; assay: DNA synthesis by [3H]-thymidine incorporation, A2780 cells; assay type: cell-based, human
Description: as §1
(§2) [^3H]-Thymidine incorporation into DNA was used for the assessment of the various effects (proliferative or inhibitory) of various isoflavones, isoflavone derivatives and known cytotoxic drugs in the above-mentioned cells. Cells were grown until subconfluence using conditions described in Somjen et al. (Somjen et al., 1998) and then treated with various agents for 24 or 48 h as indicated. At the end of incubation, [^3H]-thymidine was added for two hours. Cells were then treated with 10% ice-cold trichloroacetic (TCA) for 5 min and washed twice with 5% TCA and then with cold ethanol. The cellular layer was dissolved in 0.3 ml of 0.3 M NaOH, aliquots were taken for counting radioactivity, and [^3H]-thymidine incorporation into DNA was calculated.

[3] = test system: 320DM colon xenografts; assay: 320DM colon xenografts in nude mice; assay type: in vivo; conditions: 320DM xenografts, 8 ip daily 230 μg, 9 injections within 11 days
Excerpt: Female CD1 nude mice (8-week old, ˜30 g) were housed and handled with free access to food and water in the animal facility according to the guidelines (1996) of the Institutional Animal Care and Use Committee of the Weizmann Institute of Science, Rehovot, Israel.
Thirty female CD-1 nude mice were inoculated sc with 2×10^6 320DM human colon cancer cells. Two weeks later, 13 mice that developed palpable tumors were divided into two groups: control (5 mice) and treatment (8 mice). Each mouse of the treatment group received daily intra-peritoneal (ip) injections of compound 8 (230 μg in 70 μl of propylene glycol:PBS (20:80)) and the control mice received only propylene glycol:PBS. Each treated mouse received 9 injections within 11 days. The tumors were measured with calipers every other day during 12 days in two dimensions, length (a) and width (b), and tumor area was calculated using the formula: r^2×3.14, where r=a/2+b/2/2. The tumor area on Day 0 was taken as 100%.

[4] = test system: H295R adrenocarcinoma cells; assay: DNA synthesis by [3H]-thymidine incorporation, H295R cells; assay type: cell-based, human
Description: as §1, §2

[5] = test system: Human umbilical vascular smooth muscle cells (VSMC); assay: DNA synthesis by [3H]-thymidine incorporation, normal VSMC; assay type: cell-based; conditions: compound at 3 μM
Description: Human umbilical vascular smooth muscle cells (VSMC) sensitive to estrogen, were grown in culture as described above, and used only at passages 1-3, when expression of smooth muscle actin was clearly demonstrable (Somjen et al. 2000). The ratio of the expression of mRNA for ERα to ERβ was 2.7:1.
as §2

[6] = test system: human prostate C4-2B cancer cells; assay: DNA synthesis by [3H]-thymidine incorporation, C4-2B cells; assay type: cell-based
Description: as §1, §2

[7] = test system: T47D mammary cancer cells; assay: DNA synthesis by [3H]-thymidine incorporation, T47D cells; assay type: cell-based, human; conditions: Homo sapiens
Description: as §1, §2

## CC(C)(C)OC(=O)NCCCCCCNC(=O)CCCc1oc2cc(O)cc(O)c2c(=O)c1-c1ccc(O)cc1 [Compound 8, 2-[3-[N-[6-(tert-Butoxycarbonyl)-aminohexyl]]-caboxamidopropyl]-5,7,4′-trihydroxyisoflavone]
[1]; 30 to 3000 nM
  effect on DNA synthesis / growth: significant growth inhibitory effect
[1]; compound at 3 μM
  DNA synthesis, ratio experimental/control (E/C): 0.2 ± 0.09
[2]; at 3 μM
  effect on DNA synthesis: had no effect
[2]; compound at 3 μM
  DNA synthesis, ratio experimental/control (E/C): 1.12 ± 0.19
[3]
  effect on growth of tumors: slowed down the growth of the tumors
[4]; Homo sapiens, NCI-H295R, at 3 μM, read-out: inhibition of DNA synthesis / growth
  inhibition at 3 µM: 40 to 45%
[4]; compound at 3 μM
  DNA synthesis, ratio experimental/control (E/C): 0.6 ± 0.14
[5]
  DNA synthesis, ratio experimental/control (E/C): 0.78 ± 0.1
[6]; at 30 nM and 300 nM
  inhibition of DNA synthesis: 10-15%
[6]; compound at 0.3 μM
  DNA synthesis, ratio experimental/control (E/C): 0.75 ± 0.07
[7]
  inhibition at 10 µM: 24 to 40%
